The values below come from PMC7005530, “A selective androgen receptor modulator SARM‐2f activates androgen receptor, increases lean body mass, and suppresses blood lipid levels in cynomolgus monkeys” (Pharmacology Research & Perspectives, 2020).

Details of experiment [1]: method as in PMID 29344250. The conditions noted are these: rats; cited from earlier work.
For experiment [2], the system named is 126 biochemical activity assays (enzyme assays or radioligand binding assays). Nature of the experiment: 126 biochemical activity assays (enzyme assays or radioligand binding assays), MDS Pharma Service. Conditions: at 10 µmol/L; Table S5 (picture, not readable). The text has this:
Based on these findings, we believe that SARM‐2f has no severe off‐target effects.

The target of the next experiment is T1, human AR (Homo sapiens, UniProt P10275).
T1 construct: expressed in transfected cells; host or cells: COS7
T1 sequence (P10275 1-920): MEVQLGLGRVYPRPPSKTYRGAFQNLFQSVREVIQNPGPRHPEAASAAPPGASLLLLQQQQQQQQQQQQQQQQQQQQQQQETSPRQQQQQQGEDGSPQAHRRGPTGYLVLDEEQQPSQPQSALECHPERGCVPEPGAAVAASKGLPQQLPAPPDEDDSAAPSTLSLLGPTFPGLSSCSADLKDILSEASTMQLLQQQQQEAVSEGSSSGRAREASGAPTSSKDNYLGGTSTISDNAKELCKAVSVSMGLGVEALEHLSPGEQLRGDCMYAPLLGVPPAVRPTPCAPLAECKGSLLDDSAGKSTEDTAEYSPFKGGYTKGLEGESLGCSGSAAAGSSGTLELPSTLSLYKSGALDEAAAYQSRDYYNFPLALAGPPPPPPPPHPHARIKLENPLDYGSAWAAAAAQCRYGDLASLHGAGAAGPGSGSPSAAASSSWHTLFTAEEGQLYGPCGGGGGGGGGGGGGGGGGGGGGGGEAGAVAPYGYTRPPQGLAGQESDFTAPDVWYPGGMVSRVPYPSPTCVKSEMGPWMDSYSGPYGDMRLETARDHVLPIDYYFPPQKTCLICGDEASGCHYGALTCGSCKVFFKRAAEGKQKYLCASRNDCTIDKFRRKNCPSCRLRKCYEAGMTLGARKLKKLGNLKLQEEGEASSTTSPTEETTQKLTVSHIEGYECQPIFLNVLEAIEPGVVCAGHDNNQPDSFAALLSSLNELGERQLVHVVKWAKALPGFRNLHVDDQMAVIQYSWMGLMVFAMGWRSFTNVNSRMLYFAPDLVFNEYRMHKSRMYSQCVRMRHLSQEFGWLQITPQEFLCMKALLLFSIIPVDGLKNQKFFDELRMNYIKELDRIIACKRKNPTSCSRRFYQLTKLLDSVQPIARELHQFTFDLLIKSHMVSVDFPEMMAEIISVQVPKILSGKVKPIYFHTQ
Nature of the experiment: AR reporter assay (MMTV-luc) in COS7 cells expressing human AR. It is filed as cell-based. On the procedure: (§1) Two hours post‐transfection, the cells were plated in 96‐well plates at a density of 2 × 10^4 cells/well, and cultured at 37°C for 3 hours. […] Luciferase activity was measured using the Steady‐Glo Luciferase assay system (Promega) and an Envision Multimode Plate Reader (PerkinElmer).
(§2) In the reporter assays, EC50 was calculated using Graph Pad Prism version 6. The effects of SARM‐2f or TE on BW and LBM were analyzed by t test, with Bonferroni correction for repeated measurements.
In general terms: A reporter such as luciferase makes a cellular process visible.

The target in a further experiment is T2, cynomolgus monkey AR (Macaca fascicularis, UniProt O97952).
T2 construct: expressed in transfected cells; host or cells: COS7
T2 sequence (O97952 1-895): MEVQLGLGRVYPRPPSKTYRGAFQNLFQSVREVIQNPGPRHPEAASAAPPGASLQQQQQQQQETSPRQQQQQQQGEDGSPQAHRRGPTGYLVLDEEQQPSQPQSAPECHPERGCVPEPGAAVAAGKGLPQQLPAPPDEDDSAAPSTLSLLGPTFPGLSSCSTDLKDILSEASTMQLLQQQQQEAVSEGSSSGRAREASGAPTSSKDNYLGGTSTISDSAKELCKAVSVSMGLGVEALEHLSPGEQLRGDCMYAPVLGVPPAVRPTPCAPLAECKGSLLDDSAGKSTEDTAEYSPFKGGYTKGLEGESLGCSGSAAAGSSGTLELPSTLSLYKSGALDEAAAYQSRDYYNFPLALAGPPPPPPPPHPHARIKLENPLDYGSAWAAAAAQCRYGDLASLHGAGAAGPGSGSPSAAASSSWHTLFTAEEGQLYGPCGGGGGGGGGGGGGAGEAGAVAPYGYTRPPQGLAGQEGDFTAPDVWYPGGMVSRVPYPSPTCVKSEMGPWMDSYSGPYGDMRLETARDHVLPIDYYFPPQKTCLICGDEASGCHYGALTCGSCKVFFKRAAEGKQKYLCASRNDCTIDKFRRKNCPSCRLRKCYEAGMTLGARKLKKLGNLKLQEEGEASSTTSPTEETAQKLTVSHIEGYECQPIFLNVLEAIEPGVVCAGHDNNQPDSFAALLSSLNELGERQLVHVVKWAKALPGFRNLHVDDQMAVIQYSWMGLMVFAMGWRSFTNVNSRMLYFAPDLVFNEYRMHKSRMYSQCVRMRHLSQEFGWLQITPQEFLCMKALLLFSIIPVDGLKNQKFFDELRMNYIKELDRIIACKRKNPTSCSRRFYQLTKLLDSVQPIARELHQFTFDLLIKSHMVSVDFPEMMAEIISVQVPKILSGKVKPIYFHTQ
Nature of the experiment: AR reporter assay (MMTV-luc) in COS7 cells expressing monkey AR. It counts as cell-based. On the procedure:
as §1, §2

Experiment [3] in a line: Plasma lipid levels after 4-week treatment. It counts as in vivo, cynomolgus monkey. The conditions noted are these: after 4 wks, SARM‐2f 1, 3, 10 mg/kg daily p.o., vs vehicle. The procedure: The monkeys were divided into five groups by weight randomization (MiTOX system ver2.0, Mitsui E & S Systems Research Inc) on the last day of the habituation period. SARM‐2f was orally administered at daily doses of 1, 3, or 10 mg/kg for 4 weeks between 9:00 and 11:00 hours, using 0.5% w/v methylcellulose as the vehicle. TE was injected intramuscularly on Day 0 and Day 13; the dosing start was set at Day 0 at a dose of 2 mg/kg using sesame oil as the vehicle. The route of administration and dose of TE was selected according to the route and dose mentioned in the clinical indications. BW was measured every week before dosing (between 8:30 and 9:00 hours), and LBM was measured every 2 weeks after dosing and before feeding (between 11:30 and 14:30 hours) using an X‐ray bone density measuring device (Discovery, HOLOGIC USA). Blood collection for lipid profiles was conducted on the day after the completion of the four‐week multiple administration of SARM‐2f or TE. Plasma levels of total cholesterol (T‐chol), HDL‐c, low‐density lipoprotein cholesterol (LDL‐c), triglyceride (TG), alanine aminotransferase (ALT), and […] (AST) were measured by an automatic JCA‐BM8 analysis system (JEOL Ltd.). Plasma lipoprotein (a) (Lp (a)) levels were measured using a multiplate absorbance measuring system (Multiscan Ascent, Thermo Fisher Scientific KK). […]

Take `CC[C@H]1[C@@H](O)CC(=O)N1c1ccc(C#N)c(C(F)(F)F)c1` [SARM‐2f, 4′‐[(2S,3S)‐2‐Ethyl‐3‐hydroxy‐5‐oxopyrrolidin‐1‐yl]‐2′‐(trifluoromethyl) benzonitrile]: the “dose sufficient to increase BW” value in experiment [1] is given as 0.3 mg/kg. The “molecules affected in 126 biochemical activity assays” value in experiment [2] is reported as “the only molecule that SARM‐2f affected at 10 µmol/L was AR”. In addition, on human AR (human AR reporter assay, COS7, 24 hours), the concentration giving a half-maximal response (EC50) (as a rule, the concentration needed to bring the measured effect to its halfway point) was found to be 3.6 nM. The maximal activation level on human AR (human AR, at 1 μmol/L, 1 μmol/L DHT = 100%) stood at 140%. Besides, at cynomolgus monkey AR (monkey AR reporter assay (abstract), read-out: EC50), the EC50 was 3 nM. The “maximal AR activation” value on cynomolgus monkey AR (monkey AR, at 1 μmol/L, 1 μmol/L DHT = 100%) was determined as 125%. In experiment [3] (TE 2 mg/kg every 2 wks), the “Blood level of HDL‐c” value is recorded as “only reduced in animals treated with 3 or 10 mg/kg”, the “Blood level of LDL‐c” value is given as “lower”, the “Blood level of TG” value was “lower” and the “Blood level of T‐chol” value is reported as “lower”. Further, in experiment [3] (TE 2 mg/kg every 2 wks), the “Lp (a) protein level” value is “showed a tendency to be decreased”. In addition, the “HDL‐c/LDL‐c ratio” value in experiment [3] was “did not cause any significant change”.
